Measurements: PubChem BioAssay AID1259371 (The Scripps Research Institute Molecular Screening Center, 2018)
Calls of active or inactive are those of the source. No rule for the calls is given here.

target: Microphthalmia-associated transcription factor (Homo sapiens) (UniProt O75030); experiment: MITF inhibitors, potency by titration, dose response, biochemical, AlphaScreen, human (AID 1259371); settings: AlphaScreen biochemical MITF assay, signal inhibition
Sequence (O75030 whole entry, looked up): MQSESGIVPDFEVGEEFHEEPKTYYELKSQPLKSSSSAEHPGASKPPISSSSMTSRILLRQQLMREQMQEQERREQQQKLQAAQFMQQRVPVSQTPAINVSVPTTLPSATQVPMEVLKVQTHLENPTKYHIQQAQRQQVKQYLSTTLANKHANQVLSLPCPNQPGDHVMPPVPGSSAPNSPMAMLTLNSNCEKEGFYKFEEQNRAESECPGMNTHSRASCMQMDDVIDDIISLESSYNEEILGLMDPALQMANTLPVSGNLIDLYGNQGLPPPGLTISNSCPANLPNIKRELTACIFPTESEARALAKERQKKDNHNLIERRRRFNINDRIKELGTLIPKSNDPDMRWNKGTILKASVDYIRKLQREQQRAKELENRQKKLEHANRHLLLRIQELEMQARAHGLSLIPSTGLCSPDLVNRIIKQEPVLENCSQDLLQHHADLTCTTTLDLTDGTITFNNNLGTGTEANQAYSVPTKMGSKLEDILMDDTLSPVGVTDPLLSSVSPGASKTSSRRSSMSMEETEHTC

Row | SMILES | IC50
1 | N=C1S/C(=C\c2ccco2)C(=O)N1c1nonc1N | 34 nM
2 | Cc1cc(N=Cc2ccc([N+](=O)[O-])o2)ccc1S(=O)(=O)O | inactive
3 | Cc1ccc(-c2ncn(-c3ccc(Nc4cc(-n5cnc(Nc6ccccc6)n5)c(F)cn4)cc3)n2)cn1 | inactive
4 | NC1(C(Cl)(Cl)Cl)Oc2ccccc2O1 | 232 nM
5 | COc1cc2cc3c(N)c(C(=O)Nc4sc(C)c(C)c4C#N)sc3nc2cc1OC | 409 nM
6 | O=C(Nc1ccc(N2CCOCC2)cc1)c1cccc(Nc2ccncn2)n1 | inactive
7 | CCOc1cccc(OCC)c2c(C)[n+](C)c(C)c1-2 | 58.2 nM
8 | CCS(=O)(=O)NCC(c1cccs1)S(=O)(=O)c1ccc(C)cc1 (stereo not given) | 804 nM
9 | c1cc2c(cc1CNc1nc(Nc3ccc(N4CCOCC4)cc3)c3ncn(C4CCCCC4)c3n1)OCO2 | inactive
10 | O=C(N/N=C/C=C/c1ccco1)c1ccncc1 | 24.5 nM
11 | CC(O)(CNCCN1CCOCC1)COc1ccc(Cl)cc1 (stereo not given) | inactive
12 | O=C(Nc1ccc(C(=O)Nc2ccc(C(=O)Nc3ccc(S(=O)(=O)O)c4cc(S(=O)(=O)O)cc(S(=O)(=O)O)c34)cc2)cc1)Nc1ccc(C(=O)Nc2ccc(C(=O)Nc3ccc(S(=O)(=O)O)c4cc(S(=O)(=O)O)cc(S(=O)(=O)O)c34)cc2)cc1 | 986 nM
13 | CCN1CCc2c(sc(NC(=S)NC(=O)/C=C/c3ccco3)c2C(N)=O)C1 | 726 nM
14 | NC(=O)c1cncc(-c2cccs2)c1 | 321 nM
15 | COc1ccc(/C=C2\N=C(c3ccc4c(c3)OCO4)OC2=O)cc1Cl | 757 nM
16 | O=C(NNC(=S)Nc1ccccc1)C(=O)NNC(=S)Nc1ccccc1 | inactive

Row | SMILES | IC50
17 | OCCNc1cc(-c2cccs2)ncn1 | inactive
18 | c1coc(CNc2ccc3ncc(-c4ccco4)n3n2)c1 | inactive
19 | CN(C)c1ccc(O)c2c1C[C@H]1C[C@H]3[C@H](N(C)C)C(=O)C(C(N)=O)=C(O)[C@@]3(O)C(=O)C1=C2O | 29.7 nM
20 | Cc1cc(O)c2c(c1)Cc1cccc(O)c1C2=O | 474 nM
21 | O=c1c(O)c(-c2ccc(O)cc2O)oc2cc(O)cc(O)c12 | inactive
22 | Cc1ccc(NC(=O)COC(=O)CCC(=O)Nc2sc3c(c2C(N)=O)CCC3)cc1F | inactive
23 | COc1cc(/C=C2\C(C)=C([N+](=O)[O-])CS2(=O)=O)ccc1O | 30.8 nM
24 | CC(O)C(=O)N/N=C/C=C/c1ccc([N+](=O)[O-])o1 (stereo not given) | inactive
25 | O=C(CCCCC1SCC2NC(=O)NC21)NC1(c2ccc3c(c2)OCO3)CCCC1 (stereo not given) | inactive
26 | COc1ccc2c(c1)C1NC(=S)N(c3cccc(C)c3)C(C)(O2)C1C(=O)Nc1ccc(C)cc1C (stereo not given) | > 5710 nM (inactive)
27 | Nc1ccc(NCCO)c(N)c1 | inactive
28 | O=[N+]([O-])c1cc(C=Nc2ccc(N3CCOCC3)cc2)c(O)c([N+](=O)[O-])c1 | 753 nM
29 | O=C(OC1(C(F)(F)F)C(=O)Nc2cc3c(cc21)OCO3)c1ccc(Cl)nc1 (stereo not given) | 179 nM
30 | Cc1ccc(N[C@@H]2OC[C@@H](O)C(O)C2O)cc1N[C@@H]1OC[C@@H](O)C(O)C1O (stereo not given in full) | inactive
31 | Cc1cc(C)nc(NS(=O)(=O)c2ccc(N3C(=O)C=CC3=O)cc2)n1 | > 2160 nM (inactive)
32 | COCCCNC(=O)/C(C#N)=C/c1ccc(OCC(=O)O)c(OC)c1 | inactive

Other lines, results leading:

Row | IC50 | SMILES
33 | > 5620 nM (inactive) | COc1cc(C(=O)N2CCN(Cc3ccccc3C)CC2)cc(OC)c1OC
34 | > 6480 nM (inactive) | NC(=O)/C(=C\c1cccc([N+](=O)[O-])c1)NC(=O)c1ccc(Br)cc1
35 | inactive | CC(=O)NCC(c1cccs1)S(=O)(=O)c1ccc(C)cc1 (stereo not given)
36 | inactive | C[C@H]1NC(=O)[C@H]2CN(C(=O)NCc3ccccc3)CCN2C1=O
37 | 479 nM | CC(=O)Oc1ccccc1N1C(=O)c2ccc(Oc3cccc(N)c3)cc2C1=O
38 | inactive | O=C1N[C@@H](CSCc2ccccc2)C(=O)N2CCN(C(=O)NC3CCCCC3)C[C@H]12
39 | 324 nM | O=C(O)COc1ccc(-n2cccc2)cc1
40 | > 6480 nM (inactive) | Cc1ccc(N2C(=O)C3C(C2=O)C2(CO)C=CC3(C)O2)cc1[N+](=O)[O-] (stereo not given)
41 | inactive | C[C@@H]1NC(=O)[C@H]2CN(C(=O)NC3CCCCC3)CCN2C1=O
42 | inactive | CC[C@H](C)[C@@H]1NC(=O)[C@H]2CN(C(=O)NCc3ccccc3)CCN2C1=O
43 | inactive | COc1cc(/C=N/N=C2\NC(=O)C(CC(=O)O)S2)ccc1OCc1ccc(C)cc1 (stereo not given)
44 | inactive | O=C(C1CCC(Nc2nccc(-c3ccc4nc(C5CC5)[nH]c(=O)c4c3)n2)CC1)N1CCCC1 (stereo not given)
45 | 570 nM | CCC(C)C(=O)NCc1nnc2n1CCN(C/C=C/c1ccco1)CC2 (stereo not given)
46 | inactive | C[C@@H]1NC(=O)[C@H]2CN(C(=O)NCc3ccccc3)CCN2C1=O
47 | inactive | CN(CCc1ccccn1)Cc1ccc(F)cc1
48 | inactive | CCCCOc1ccc(C(=O)N/C(=C/c2ccco2)C(=O)O)cc1
49 | inactive | O=P(O)(O)C(O)(CCNC(=S)Nc1ccccc1)P(=O)(O)O
50 | inactive | Cc1noc(C2CN(C(=O)c3ccc(-n4cccc4)cc3)C2)n1
51 | inactive | CN(C)CCNc1nc(C2COc3ccccc3O2)nc2ccc(-c3cn[nH]c3)cc12 (stereo not given)
52 | inactive | C[C@H](O)[C@H]1NC(=O)[C@H]2CN(C(=O)NCc3ccccc3)CCN2C1=O
53 | > 6480 nM (inactive) | CCOc1ccccc1N1CCN(Cc2cc(OC)c(O)c([N+](=O)[O-])c2)CC1
54 | 809 nM | O=C1S/C(=C\c2ccco2)C(=O)N1c1ccccc1Cl

Row | IC50 | SMILES
55 | inactive | COc1ccccc1C1(NC(=O)CCCCC2SCC3NC(=O)NC32)CCCC1 (stereo not given)
56 | inactive | COC(=O)CN1C(=O)S/C(=C/c2ccc([N+](=O)[O-])o2)C1=O
57 | 162 nM | O=C1c2ccc([N+](=O)[O-])cc2C(=O)N1c1cc(Br)c(O)c(Br)c1
58 | inactive | COc1ccc(C[C@@H]2NC(=O)[C@H]3CN(C(=O)NCc4ccccc4)CCN3C2=O)cc1
59 | 146 nM | O=C(/C=C/c1ccco1)NC(=S)Nc1cc(C(=O)O)ccc1Cl
60 | > 2370 nM (inactive) | O=C(OC1CCOC1=O)c1ccc(S(=O)(=O)NCc2ccco2)cc1 (stereo not given)
61 | 471 nM | NC(=O)c1ccccc1NC(=S)NC(=O)/C=C/c1ccco1
62 | inactive | O=C(NCCN1CCOCC1)c1cccc(CN(C(=O)c2nc3ccc(-c4cn[nH]c4)cc3s2)C2CC2)c1
63 | inactive | CN=C1SC(CC(=O)Nc2cccc(C(=O)O)c2)C(=O)N1C (stereo not given)
64 | 334 nM | CC1=C/C(=N\N=C2\NC(=O)C(CC(=O)Nc3ccc(C(=O)O)cc3)S2)CC(C)(C)C1 (stereo not given)
65 | inactive | Cn1c(SCc2cc(=O)n3c(n2)sc2ccccc23)nnc1C(F)(F)F
66 | inactive | O=C(OC1CCCC1=O)c1ccc(N2CCCC2=O)cc1 (stereo not given)
67 | inactive | COc1cc(N2CCOCC2)ccc1Nc1cc(NC(C)(C)c2ccccc2)c(C(F)(F)F)cn1
68 | > 6640 nM (inactive) | O=C(NCc1cccnc1)c1cccc(-c2cccs2)c1
69 | > 6480 nM (inactive) | CCc1ccc(NC(=O)CS(=O)CC(=O)NCCCc2ccccc2)cc1 (stereo not given)
70 | inactive | C[C@H]1C(=O)N2CCN(C(=O)NCc3ccccc3)C[C@@H]2C(=O)N1C
71 | inactive | O=C(O)c1ccc(NC2OC(CO)C(O)C2O)cc1 (stereo not given)
72 | 778 nM | O=C(O)c1cc(N=Cc2ccco2)ccc1O
73 | inactive | Cc1ccc(COc2ccc(/C=N/N=C3\NC(=O)C(CC(=O)O)S3)cc2)cc1 (stereo not given)
74 | 734 nM | O=C(OCN1C(=O)c2ccccc2C1=O)c1cc2c(s1)CCC2
75 | 45.3 nM | NC(=O)C1CCN(C(=O)c2cc(-c3ccco3)nc3ccccc23)CC1
